What was measured:
Assay in all cases: relative viability (nuclei count vs DMSO), 5 days (fraction); higher = more cells survive
Ponatinib + Dasatinib = compound: Cc1ccc(C(=O)Nc2ccc(CN3CCN(C)CC3)c(C(F)(F)F)c2)cc1C#Cc1cnc2cccnn12 [Ponatinib] + Cc1nc(Nc2ncc(C(=O)Nc3c(C)cccc3Cl)s2)cc(N2CCN(CCO)CC2)n1 [Dasatinib] (partner 0.075 µM)
In short: (§1)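 Medians of duplicate plates are given as relative viability. That measure is the nuclei count in treated wells divided by the count in vehicle wells. Counts were taken on 4× images of lung cancer cell lines in 1536-well plates, 5 days after pin-tool dosing the day after seeding with one drug alone or a fixed anchor-drug dose plus five library-drug doses (not always all listed) in √10 steps.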

Pazopanib + OSI-027 = compound: Cc1ccc(Nc2nccc(N(C)c3ccc4c(C)n(C)nc4c3)n2)cc1S(N)(=O)=O [Pazopanib] + COc1cccc2cc(-c3nc([C@H]4CC[C@H](C(=O)O)CC4)n4ncnc(N)c34)[nH]c12 [OSI-027] (partner 0.5 µM)
In short: as §1

Pazopanib + Alpelisib = compound: Cc1ccc(Nc2nccc(N(C)c3ccc4c(C)n(C)nc4c3)n2)cc1S(N)(=O)=O [Pazopanib] + Cc1nc(NC(=O)N2CCC[C@H]2C(N)=O)sc1-c1ccnc(C(C)(C)C(F)(F)F)c1 [Alpelisib] (partner 2 µM)
In short: as §1

Pazopanib + Vorinostat = compound: Cc1ccc(Nc2nccc(N(C)c3ccc4c(C)n(C)nc4c3)n2)cc1S(N)(=O)=O [Pazopanib] + O=C(CCCCCCC(=O)Nc1ccccc1)NO [Vorinostat] (partner 1 µM)
In short: as §1

Cell Line	relative viability (Ponatinib + Dasatinib; first compound 0.002 µM)	relative viability (Ponatinib + Dasatinib; first compound 0.006325 µM)	relative viability (Ponatinib + Dasatinib; first compound 0.06325 µM)	relative viability (Ponatinib + Dasatinib; first compound 0.2 µM)	relative viability (Pazopanib + OSI-027; first compound 0.01 µM)	relative viability (Pazopanib + OSI-027; first compound 0.03162 µM)	relative viability (Pazopanib + OSI-027; first compound 0.1 µM)	relative viability (Pazopanib + OSI-027; first compound 0.3162 µM)	relative viability (Pazopanib + OSI-027; first compound 1 µM)	relative viability (Pazopanib + Alpelisib; first compound 0.01 µM)	relative viability (Pazopanib + Alpelisib; first compound 0.03162 µM)	relative viability (Pazopanib + Alpelisib; first compound 0.1 µM)	relative viability (Pazopanib + Alpelisib; first compound 0.3162 µM)	relative viability (Pazopanib + Alpelisib; first compound 1 µM)	relative viability (Pazopanib + Vorinostat; first compound 0.01 µM)	relative viability (Pazopanib + Vorinostat; first compound 0.03162 µM)	relative viability (Pazopanib + Vorinostat; first compound 0.1 µM)	relative viability (Pazopanib + Vorinostat; first compound 0.3162 µM)	relative viability (Pazopanib + Vorinostat; first compound 1 µM)
SK-MES-1	0.32	0.413	0.455	0.33	0.643	0.629	0.654	0.585	0.578	0.816	0.872	1.02	0.977	0.836	1.03	0.989	1.27	1.09	1.07
EPLC-272H	0.359	0.33	0.376	0.279		0.253	0.337	0.336	0.277	0.734	0.966	1	0.991	0.804	0.389	0.432	0.682	0.652	0.535
NCI-H1793	0.37	0.36	0.348	0.352		0.254	0.274	0.354	0.273		0.687	0.62	0.914	0.732		0.753	0.637	0.811	1.11
NCI-H2126	0.554	0.564	0.65	0.531	0.643	0.612	0.68	0.718	0.719	0.65	0.751	0.821	0.811	0.806	0.588	0.747	0.76	0.822	0.732
LXF-289	0.26	0.275	0.26	0.195	0.815	0.774	0.805	0.77	0.843	1.06	1.04	1.02	1.03	1.09	0.767	0.798	0.779	0.732	0.812
NCI-H2009	0.259	0.292	0.297	0.295	0.576	0.622	0.566	0.56	0.44	1.08	1.19	1.26	1.09	1	0.72	0.744	0.757	0.692	0.765
NCI-H3122	0.773	0.85	0.838	0.809	0.985	0.958	1.02	1.05	1.26	0.733	0.734	0.783	0.884	0.736	0.794	0.926	0.89	1.02	1.05
NCI-H1755	0.453	0.388	0.362	0.385	0.693	0.653	0.671	0.678	0.632	0.814	0.906	0.917	0.93	0.914	0.65	0.744	0.876	0.812	0.75
HCC-78	0.33	0.35	0.296	0.382	0.361	0.423	0.348	0.411	0.371	0.284	0.406	0.3	0.35	0.388		0.455	0.433	0.412	0.446
LOU-NH91	0.541	0.581	0.548	0.525	0.701	0.753	0.719	0.781	0.728	0.754	0.729	0.774	0.816	0.746	0.873	0.964	0.917	1.02	0.942
NCI-H322M	0.263	0.244	0.232	0.253	0.531	0.646	0.533	0.636	0.607	0.846	1.03	0.779	0.632	0.926	0.916	0.989	0.765	0.948	0.995
HCC-827	0.241	0.344	0.296	0.248	0.775	0.752	0.784	0.801	0.731	0.949	0.943	1.02	0.944	1.01	0.895	0.839	0.843	0.922	0.785
SW 1573	0.451	0.507	0.466	0.485	0.566	0.728	0.684	0.715	0.765	0.69	0.707	0.683	0.808	0.81	0.641	0.692	0.648	0.992	0.525
NCI-H1975	0.28	0.355	0.318	0.267	0.677	0.723	0.861	0.735	0.734	0.684	0.648	0.608	0.74	0.662	0.712	0.76	0.805	0.723	0.754
NCI-H1651	0.398	0.435	0.451	0.355	0.66	0.742	0.728	0.715	0.871	0.956	1.08	0.913	0.88	1.13	0.536	0.588	0.621	0.534	0.637
NCI-H460	0.45	0.536	0.584	0.462	0.601	0.912	0.645	0.665	0.725	0.432	0.529	0.52	0.531	0.6	0.719	0.765	0.749	0.677	0.723
LCLC-103H	0.386	0.573	0.532	0.394	0.495	0.454	0.547	0.482	0.485	0.782	0.823	1.03	0.973	1.06	0.692	0.804	0.753	0.823	0.842
